Patent US8513232B2, “Substituted spirocyclic piperidine derivatives as histamine-3 (H3) receptor ligands” (Cephalon, Inc., priority 2008, dated 2013)
Read-outs that look alike come from different tables or passages of the source.

Legend:
[1] = target: T1, human H3 receptor (Homo sapiens, UniProt Q9Y5N1); assay: Human H3 radioligand binding ([3H]-N-alpha-methylhistamine, SPA)
T1 construct: expressed in transfected cells
Procedure, shortened: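 SPA competition binding on membranes from CHO cells stably expressing human H3 receptor (10 μg protein/well) with ~1 nM [3H]-N-alpha-methylhistamine and compound at 0.01 nM-30 μM. Incubation 4 h at room temperature in 50 mM Tris-HCl pH 7.4, 5 mM MgCl2, 0.1% BSA; non-specific binding defined with 10 μM clobenpropit.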

[2] = target: T2, rat histamine H3 receptor (Rattus norvegicus, UniProt Q9QYN8); assay: Rat H3 radioligand binding ([3H]-N-alpha-methylhistamine, SPA)
T2 construct: encoding the entire 445-amino-acid rat histamine H3 receptor; expressed in transfected cells; membrane preparation
Procedure, shortened: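 Membranes from CHO-A3 cells stably expressing full-length rat H3 receptor (10 μg protein/well) incubated 4 h at room temperature, protected from light, with ~1 nM [3H]-N-alpha-methylhistamine and compound (0.01 nM-30 μM) in 50 mM Tris HCl pH 7.4, 5 mM MgCl2, 0.1% BSA. Binding read by SPA; 10 μM clobenpropit defined non-specific binding.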

[3] = Table C, human H3 binding, read-out: Human H3 Ki
[4] = Table C, rat H3 binding, read-out: Rat H3 Ki
[5] = Human H3 binding, Table B, Examples 136-362, read-out: hum H3 binding Ki
[6] = Rat H3 binding, Table B, Examples 136-362, read-out: rat H3 binding Ki
[7] = human H3 binding, Table D, read-out: Human H3 Ki
[8] = rat H3 binding, Table D, read-out: Rat H3 Ki
[9] = Table A, human H3 binding, read-out: Human Ki
[10] = Table A, rat H3 binding, read-out: Rat Ki

T1 sequence (Q9Y5N1 whole entry): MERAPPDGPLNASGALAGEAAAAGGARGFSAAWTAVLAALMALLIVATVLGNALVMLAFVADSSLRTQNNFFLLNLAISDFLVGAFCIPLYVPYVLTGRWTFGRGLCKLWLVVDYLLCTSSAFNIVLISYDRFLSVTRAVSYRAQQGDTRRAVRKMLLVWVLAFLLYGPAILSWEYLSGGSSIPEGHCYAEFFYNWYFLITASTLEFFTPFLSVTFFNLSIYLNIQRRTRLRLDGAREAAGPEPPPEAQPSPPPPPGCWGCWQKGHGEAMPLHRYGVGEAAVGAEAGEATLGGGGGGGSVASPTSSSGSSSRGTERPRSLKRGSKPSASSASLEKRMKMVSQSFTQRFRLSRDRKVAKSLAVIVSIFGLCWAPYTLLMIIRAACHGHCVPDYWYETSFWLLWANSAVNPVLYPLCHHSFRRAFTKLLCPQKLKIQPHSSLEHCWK
T2 sequence (Q9QYN8 whole entry): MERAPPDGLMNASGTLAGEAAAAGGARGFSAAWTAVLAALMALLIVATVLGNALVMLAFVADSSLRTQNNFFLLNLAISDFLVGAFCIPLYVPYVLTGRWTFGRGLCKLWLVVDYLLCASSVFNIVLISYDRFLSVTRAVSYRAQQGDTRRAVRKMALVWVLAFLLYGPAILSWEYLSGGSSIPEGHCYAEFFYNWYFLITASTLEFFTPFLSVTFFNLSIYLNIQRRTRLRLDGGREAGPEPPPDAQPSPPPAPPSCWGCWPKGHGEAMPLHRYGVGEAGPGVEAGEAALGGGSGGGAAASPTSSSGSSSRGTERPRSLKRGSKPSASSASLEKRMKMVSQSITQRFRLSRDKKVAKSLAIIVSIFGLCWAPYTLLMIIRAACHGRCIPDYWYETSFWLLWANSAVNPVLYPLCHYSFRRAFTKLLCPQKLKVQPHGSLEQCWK

Row | SMILES | melting point | Ki [1, 7] [nM] | Ki [2, 8] [nM] | also measured
1 | O=C1CCC(c2ccc3c(c2)COC2(CCN(C4CCC4)CC2)O3)CN1 (stereo not drawn) [Example 530] | 233 to 235 °C |  |  | Ki ([1]; read-out: Human H3 Ki): < 200 nM; Ki ([2]; read-out: Rat H3 kI): < 200 nM
2 | COCCNC(=O)c1ccc(Oc2ccc3c(c2)CCC2(CCN(C4CCC4)CC2)O3)nc1 [Example 416] | 235 to 237 °C |  |  | Ki [1, 3]: < 200 nM; Ki [2, 4]: < 200 nM
3 | c1cc2c(cc1N1CCC(OCC3CC3)CC1)CCC1(CCN(C3CCC3)CC1)O2 [Example 424] | 280 to 283 °C |  |  | Ki [1, 3]: < 200 nM; Ki [2, 4]: < 200 nM
4 | CCNC(=O)C1CCC(O)(c2ccc3c(c2)COC2(CCN(C4CCC4)CC2)O3)CC1 (stereo not drawn) [Example 514] | 195 to 196 °C |  |  | Ki ([1]; read-out: Human H3 Ki): < 200 nM; Ki ([2]; read-out: Rat H3 kI): < 200 nM
5 | NC(=O)c1ccc(Oc2ccc3c(c2)CCC2(CCN(C4CCC4)CC2)O3)nc1 [Example 390] | 191 to 193 °C |  |  | Ki [1, 3]: < 200 nM; Ki [2, 4]: < 200 nM
6 | O=C(Nc1ccc2c(c1)COC1(CCN(C3CCC3)CC1)O2)c1ccc2[nH]cnc2c1 [Example 326] | 235 to 237 °C |  |  | Ki [1, 5]: < 200 nM; Ki [2, 6]: < 200 nM
7 | O=C(Nc1ccc2c(c1)COC1(CCN(C3CCC3)CC1)O2)N1CCOCC1 [Example 165] | 238 to 240 °C |  |  | Ki [1, 5]: < 200 nM; Ki [2, 6]: 200 to 1000 nM
8 | NC(=O)c1ccc(-c2ccc3c(c2)COC2(CCN(C4CCC4)CC2)O3)s1 [Example 679] | 250 °C (dec.) | < 200 | < 200 | 
9 | COc1ncc(-c2ccc3c(c2)COC2(CCN(C4CCC4)CC2)O3)cc1CO [Example 768] | 150 to 151 °C | < 200 | < 200 | 
10 | c1cc(Nc2ccc3c(c2)COC2(CCN(C4CCC4)CC2)O3)ncn1 [Example 129] | 170 to 171 °C |  |  | Ki [1, 9]: < 200 nM; Ki [2, 10]: < 200 nM
11 | COCc1cc(-c2ccc3c(c2)COC2(CCN(C4CCC4)CC2)O3)cnc1OC [Example 804] | 257 °C | < 200 | < 200 | 
12 | Cc1nc(-c2ccc3c(c2)COC2(CCN(C4CCC4)CC2)O3)cs1 [Example 74] | 151 to 153 °C |  |  | Ki [1, 9]: < 200 nM; Ki [2, 10]: < 200 nM
13 | COCCN(C)C(=O)c1c(F)cc(-c2ccc3c(c2)CCC2(CCN(C4CCC4)CC2)O3)cc1F [Example 360] | 100 to 102 °C |  |  | Ki [1, 5]: < 200 nM; Ki [2, 6]: < 200 nM
14 | O=C(Nc1ccc2c(c1)COC1(CCN(C3CCC3)CC1)O2)c1ccc2ncsc2c1 [Example 316] | 232 to 234 °C |  |  | Ki [1, 5]: < 200 nM; Ki [2, 6]: < 200 nM
15 | Cc1ccc(-c2ccc3c(c2)COC2(CCN(C4CCC4)CC2)O3)c(C)n1 [Example 748] | 190 to 192 °C | < 200 | < 200 | 
16 | O=c1ccc(-c2ccc3c(c2)COC2(CCN(C4CCC4)CC2)O3)cn1Cc1ccccc1 [Example 553] | 193 to 196 °C |  |  | Ki ([1]; read-out: Human H3 Ki): < 200 nM; Ki ([2]; read-out: Rat H3 kI): < 200 nM
17 | CN(C)C(=O)c1cnc(COc2ccc3c(c2)CCC2(CCN(C4CCC4)CC2)O3)cn1 [Example 619] | 120 to 123 °C | < 200 | < 200 | 
18 | Cc1cc(=O)[nH]cc1-c1ccc2c(c1)COC1(CCN(C3CCC3)CC1)O2 [Example 651] | 217 to 220 °C | < 200 | < 200 | 
19 | CC(C)(O)CNC(=O)c1ccc(-c2ccc3c(c2)COC2(CCN(C4CCC4)CC2)O3)cc1 [Example 155] | 156 to 158 °C |  |  | Ki [1, 5]: < 200 nM; Ki [2, 6]: < 200 nM
20 | CNC(=O)c1ccc(Nc2ccc3c(c2)COC2(CCN(C4CCC4)CC2)O3)cc1 [Example 285] | 206 to 208 °C |  |  | Ki [1, 5]: < 200 nM; Ki [2, 6]: < 200 nM
21 | CCOC1CCN(c2ccc3c(c2)CCC2(CCN(C4CCC4)CC2)O3)CC1 [Example 391] | 285 to 290 °C |  |  | Ki [1, 3]: < 200 nM; Ki [2, 4]: < 200 nM
22 | c1cc(-c2ccc3c(c2)COC2(CCN(C4CCC4)CC2)O3)co1 [Example 5] | 150 to 152 °C |  |  | Ki [1, 9]: < 200 nM; Ki [2, 10]: < 200 nM
23 | c1nnc(CCc2ccc3c(c2)COC2(CCN(C4CCC4)CC2)O3)o1 [Example 675] | 83 to 85 °C | < 200 | < 200 | 
24 | O=C(Nc1ccccc1)N1CCN(c2ccc3c(c2)COC2(CCN(C4CCC4)CC2)O3)CC1 [Example 276] | 194.6 to 195.8 °C |  |  | Ki [1, 5]: < 200 nM; Ki [2, 6]: < 200 nM
25 | CNC(=O)c1ccc(-c2cc3c(cc2Cl)OC2(CCN(C4CCC4)CC2)OC3)cc1F [Example 272] | 70 to 72 °C |  |  | Ki [1, 5]: < 200 nM; Ki [2, 6]: < 200 nM
26 | CC(C)c1nnc(CCc2ccc3c(c2)COC2(CCN(C4CCC4)CC2)O3)o1 [Example 695] | 101 to 103 °C | < 200 | < 200 | 

Further lines, with some results ahead:

Row | melting point | Ki [1, 7] [nM] | Ki [2, 8] [nM] | SMILES | also measured
27 | 217 to 219 °C |  |  | O=c1ccc(C(O)c2ccc3c(c2)COC2(CCN(C4CCC4)CC2)O3)c[nH]1 (stereo not drawn) [Example 526] | Ki ([1]; read-out: Human H3 Ki): < 200 nM; Ki ([2]; read-out: Rat H3 kI): < 200 nM
28 | 154.6 to 156.4 °C |  |  | O=S(=O)(N1CCN(c2ccc3c(c2)COC2(CCN(C4CCC4)CC2)O3)CC1)C(F)(F)F [Example 299] | Ki [1, 5]: < 200 nM; Ki [2, 6]: < 200 nM
29 | 209 to 211 °C | < 200 | < 200 | O=C(NC1CCOCC1)c1ccc(-c2ccc3c(c2)COC2(CCN(C4CCC4)CC2)O3)s1 [Example 631] | 
30 | 96 to 98 °C | < 200 | < 200 | Cc1c(-c2ccc3c(c2)COC2(CCN(C4CCC4)CC2)O3)cn(CC(F)(F)F)c(=O)c1C [Example 783] | 
31 | 125 to 127 °C |  |  | COc1cc(Oc2ccc3c(c2)CCC2(CCN(C4CCC4)CC2)O3)ccn1 [Example 486] | Ki ([1]; read-out: Human H3 Ki): < 200 nM; Ki ([2]; read-out: Rat H3 kI): < 200 nM
32 | 148 to 149 °C |  |  | CCOC(=O)c1ccc(-c2ccc3c(c2)COC2(CCN(C4CCC4)CC2)O3)cc1 [Example 28] | Ki [1, 9]: < 200 nM; Ki [2, 10]: < 200 nM
33 | 54 to 58 °C |  |  | N#Cc1ccccc1Nc1ccc2c(c1)COC1(CCN(C3CCC3)CC1)O2 [Example 125] | Ki [1, 9]: < 200 nM; Ki [2, 10]: < 200 nM
34 | 63 to 68 °C | < 200 | < 200 | OC(c1ccc2c(c1)COC1(CCN(C3CCC3)CC1)O2)c1cscn1 (stereo not drawn) [Example 697] | 
35 | 118 to 120 °C |  |  | CC(C)(C)OC(=O)N1CCC(Oc2ccc3c(c2)CCC2(CCN(C4CCC4)CC2)O3)CC1 [Example 417, 1′-cyclobutyl-6-(piperidine-1-carboxylic acid tert-butyl ester-4-yloxy)-3,4-dihydro spiro-[2H-benzopyran-2,4′-piperidine]] | Ki [1, 3]: < 200 nM; Ki [2, 4]: < 200 nM
36 | 85 to 87 °C |  |  | c1ccc(CNc2ccc3c(c2)COC2(CCN(C4CCC4)CC2)O3)cc1 [Example 305] | Ki [1, 5]: < 200 nM; Ki [2, 6]: < 200 nM
37 | 145 to 147 °C |  |  | O=C(NCCO)c1ccc(-c2cc(F)c3c(c2)COC2(CCN(C4CCC4)CC2)O3)cc1 [Example 141] | Ki [1, 5]: < 200 nM; Ki [2, 6]: < 200 nM
38 | 56 to 58 °C |  |  | Cc1ccc(C#N)c(Nc2ccc3c(c2)COC2(CCN(C4CCC4)CC2)O3)n1 [Example 236] | Ki [1, 5]: < 200 nM; Ki [2, 6]: < 200 nM
39 | 231 to 232 °C |  |  | COCCNC(=O)c1ccc(-c2ccc3c(c2)CCC2(CCN(C4CCC4)CC2)O3)cc1Cl [Example 332] | Ki [1, 5]: < 200 nM; Ki [2, 6]: < 200 nM
40 | 85 to 90 °C |  |  | OC(c1ccc2c(c1)COC1(CCN(C3CCC3)CC1)O2)C1CCSCC1 (stereo not drawn) [Example 496] | Ki ([1]; read-out: Human H3 Ki): < 200 nM; Ki ([2]; read-out: Rat H3 kI): < 200 nM
41 | 138 to 141 °C |  |  | OCc1cn(-c2ccc3c(c2)COC2(CCN(C4CCC4)CC2)O3)c2ccccc12 [Example 84] | Ki [1, 9]: < 200 nM; Ki [2, 10]: < 200 nM
42 | 91 to 93 °C | < 200 | < 200 | Cc1cscc1-c1ccc2c(c1)COC1(CCN(C3CCC3)CC1)O2 [Example 785] | 
43 | 202 to 204 °C | < 200 | < 200 | O=c1[nH]cc(-c2ccc3c(c2)COC2(CCN(C4CCC4)CC2)O3)c2ccccc12 [Example 777] | 
44 | 149 to 152 °C | < 200 | < 200 | Cc1ccc2nc(C)n(-c3ccc4c(c3)COC3(CCN(C5CCC5)CC3)O4)c(=O)c2c1 [Example 792] | 
45 | 131 to 133 °C | < 200 | < 200 | COc1ccc(-c2ccc3c(c2)COC2(CCN(C4CCC4)CC2)O3)c(C)n1 [Example 726] | 
46 | 185 to 187 °C | < 200 | < 200 | O=C(N[C@H]1CCOC1)c1ccc(-c2ccc3c(c2)COC2(CCN(C4CCC4)CC2)O3)cc1Cl [Example 611] | 
47 | 241 to 243 °C |  |  | Cc1ccccc1-c1ccc2c(c1)COC1(CCN(C3CCC3)CC1)O2 [Example 138] | Ki [1, 5]: < 200 nM; Ki [2, 6]: < 200 nM
48 | 246 to 248 °C |  |  | CNC(=O)C1CC(O)(c2ccc3c(c2)COC2(CCN(C4CCC4)CC2)O3)C1 (stereo not drawn) [Example 494] | Ki ([1]; read-out: Human H3 Ki): < 200 nM; Ki ([2]; read-out: Rat H3 kI): < 200 nM
